The conditions of series [1]: in cyclohexane; cited from earlier work.
Series [2] is described as follows: Lippert-Mataga analysis of excited state dipole moments. In kind it is physicochemical. The conditions noted are these: semi-empirically calculated using the Lippert-Mataga equation. Here is the method: The calculated HOMOs/LUMOs indicate that the strong solvatofluorochromism arises from an ICT mechanism, whereby the ground state has significant electron localization on the donor side of the molecule whereas the electron density shifts to the acceptor moiety in the excited state. To more directly quantify the strong ICT character of the TTz dyes, the excited-state dipole moments were calculated using the Lippert-Mataga equation (Eq 1):
[formula] where va and vf are the wavenumbers of the absorption and emission peaks in cm^−1, respectively; μ* and μ are the excited state and ground state dipoles, respectively; ϵ0 is the vacuum permittivity, h is Planck's constant, c is the speed of light, a is the Onsager cavity radius, Δf is the orientation polarizability, ϵ is the relative permittivity, and η is the refractive index. The dipoles were calculated using Spartan 2016 software, and the Onsager cavity radii were calculated using Gaussian '09 software.
FIGS. 9A and 9B show the Stokes shift of Bu2N-TTz-Py and Ph2N-TTz-COOH versus Δf, respectively. From the slopes of the Lippert-Mataga plots, the change between the dipole moments of the ground and excited states can be determined. Even though the Lippert-Mataga equation assumes no specific solvent-solute interactions (e.g. hydrogen bonding) and ignores solute polarizability, high degrees of linearity are apparent; and therefore, the estimations of the excited state dipoles are regarded as reliable. […] Perhaps owing to the minimal solvent interactions and rapid vibrational relaxation, the estimated changes in dipole moments (Δμ) are remarkably large (Table IV). […] Therefore, it is expected that these asymmetric TTzs dyes would be well suited to give high sensitivity in sensing applications whereby small changes in the polarity of the environment can lead to large differences in the wavelengths of fluorescence.

The nature of series [3]: UV-Vis absorbance, fluorescence emission and quantum yield in organic solvents. Type of series: physicochemical. The conditions noted are these: for peak absorbance λmax, abs: in DCM. On the procedure: The absorption, emission, and fluorescence lifetime characteristics of all four TTz dyes were recorded in a variety of organic solvents (FIGS. 7A-7B, Table of FIG. 8). Additionally, HOMO/LUMO levels of the TTz dyes were determined computationally in Spartan 16 using B3LYP/6-31g. Molar absorptivities of all the TTz dyes ranged from 13,000 to 86,000 cm^−1M^−1. […] However, the peak absorbance of Bu2N-TTz-Py in DCM was slightly red-shifted as compared to that of Ph2N-TTz-Py (λmax, abs=429 nm vs λmax, abs=422 nm in DCM), which is attributed to the diphenylamine moiety having weaker donor characteristics. […] Due to the low estimated ground state dipole moments of the TTz dyes (μ=6-8 D), their wavelengths of absorbance remained relatively solvent independent (st. dev.=±11 nm).
4-pyridine carboxaldehyde, 4-(dibutylamino)benzaldehyde, 4-(diphenylamino)benzaldehyde, terephthalaldehyde, dithiooxamide, and all solvents used for spectroscopic measurements were purchased from Sigma-Aldrich and used without further purification. ^1H and ^13CNMR measurements were obtained with either a JEOL 300 MHz NMR or a JEOL 500 MHz NMR. High resolution mass spectra were obtained using a Thermo Fisher Scientific MSQ Plus Single Quadrupole Mass Spectrometer. Solution-state UV-Vis spectra were collected on a Cary 300 UV-Vis spectrophotometer. Time-resolved measurements were taken on a Jobin Yvon-Spex Fluorolog equipped with a 389 nm diode laser for time-resolved PL decay measurements. Igor Pro 6.3 software was used to fit PL(t) decay data to single/multiple exponential decays. Quantum yields were calculated using 9,10-diphenylanthracene as a reference (quantum yield [ΦF] in cyclohexane=0.97).^40-41 Density functional theory (DFT) calculations were performed with Spartan computational software using B3LYP^42-43 density functional and 6-31G*^44 basis set. Temperature studies were conducted using a 10 μM Bu2N-TTz-Py MeTHF solution placed inside of a Norrell 502 NMR tube and sequentially submerged in the following liquid N2 baths:octanol (−16° C.), acetonitrile (−41° C.), acetone (−94° C.), pentane (−131° C.), MeTHF (−136° C.), and liquid N2 itself (−196° C.). The phosphorescence spectrum of Bu2N-TTz-Py (see S2) was collected similarly at −196° C. by pumping with 389 nm light while inside a liquid nitrogen bath and then probing the emission within 2 sec of removing from the bath. Human embryonic kidney cells (HEK 293T) were a kind gift from Prof. Bryan Dickinson, and Mouse macrophage J774A.1 cells were a kind gift from Prof. Deborah Nelson at the University of Chicago. Cells were cultured in Dulbecco's Modified Eagle's Medium (Invitrogen Corporation, USA) containing 10% heat inactivated Fetal Bovine Serum (FBS) (Invitrogen Corporation, USA), 100 U/mL penicillin, and 100 μg/mL streptomycin. Cells were maintained at 37° C. under 5% CO2.

Series [4] in a line: TCSPC fluorescence lifetime in solvents. Type of series: physicochemical. An excerpt:
TCSPC measurements of the TTz dyes show a general upward trend for fluorescent lifetimes as the polarity increases in aprotic solvents—from 1.50-1.89 ns in nonpolar solvents to ~3.00 ns in polar, aprotic solvents (Table of FIG. 8). The fluorescence lifetimes in protic solvents have the opposite trend; that is, a decrease in the fluorescence lifetime as the polarity increases (e.g. for Ph2N-TTz-COOH: τf, iPrOH=2.40 ns, τf, MeOH=1.80 ns). The trend reversal in the fluorescence lifetime can most likely be attributed to the presence of hydrogen bonding in protic solvents. […] At the same time, the non-radiative rates of each TTz generally increases as solvent polarity increases. […] Regardless, the fact that the fluorescence lifetimes are solvent dependent opens up the possibility of using these TTz dyes for measuring micelle formation and viscosity in living cells using fluorescence lifetime imaging (FLIM).
4-pyridine carboxaldehyde, 4-(dibutylamino)benzaldehyde, 4-(diphenylamino)benzaldehyde, terephthalaldehyde, dithiooxamide, and all solvents used for spectroscopic measurements were purchased from Sigma-Aldrich and used without further purification. ^1H and ^13CNMR measurements were obtained with either a JEOL 300 MHz NMR or a JEOL 500 MHz NMR. High resolution mass spectra were obtained using a Thermo Fisher Scientific MSQ Plus Single Quadrupole Mass Spectrometer. […]

This is an account of results in US12707888B2, “Asymmetric donor-acceptor molecular dyes” (THE UNIVERSITY OF NORTH CAROLINA AT CHARLOTTE, priority 2019, dated 2026).

On to `c1ccc(-c2c3ccccc3c(-c3ccccc3)c3ccccc23)cc1` [9,10-diphenylanthracene], for which the “quantum yield [ΦF] of reference” value in series [1] is reported as 0.97.

Regarding `O=Cc1ccc(-c2nc3sc(-c4ccc(N(c5ccccc5)c5ccccc5)cc4)nc3s2)cc1` [Ph2N-TTz-CHO, 2-(N,N-diphenyl-4-aminophenyl)-5-(4-formylphenyl) thiazolo[5,4-d]thiazole], in series [2], the “Change in Dipole Δμ” value is listed as 18.0 D and the “Excited State Dipole μ*” value is on record as 24.9 D. The “peak absorbance λmax, abs” value in series [3] is recorded as 434 nm.

`O=C(O)c1ccc(-c2nc3sc(-c4ccc(N(c5ccccc5)c5ccccc5)cc4)nc3s2)cc1` [Ph2N-TTz-COOH, 2-(N,N-diphenyl-4-aminophenyl)-5-(4-carboxyphenyl) thiazolo[5,4-d]thiazole]: in series [2], the “Change in Dipole Δμ” value was 13.0 D and the “Excited State Dipole μ*” value was 21.3 D. Moreover, in series [4] (MeOH), the “fluorescence lifetime τf, MeOH” value stood at 1.80 ns. For the same compound, the “fluorescence lifetime τf, iPrOH” value in series [4] (iPrOH) is on record as 2.40 ns.

As to `c1ccc(N(c2ccccc2)c2ccc(-c3nc4sc(-c5ccncc5)nc4s3)cc2)cc1` [Ph2N-TTz-Py, 2-(N,N-diphenyl-4-aminophenyl)-5-(4-pyridyl) thiazolo[5,4-d]thiazole], in series [2], the “Change in Dipole Δμ” value is 14.6 D and the “Excited State Dipole μ*” value is on record as 20.8 D. The “peak absorbance λmax, abs” value in series [3] is on record as 422 nm. In addition, the “largest Stokes shift” value in series [3] (largest across solvents) amounted to 0.750 eV.
